The supplement of paper PMC7108870

Key:
[1] = system: HEK293sieSTAT3(Y640F); assay: drug sensitivity score (DSS), cytotoxicity CellTox Green (DSS (dimensionless)); higher = more cytotoxic; extreme values may be limits of the assay; conditions: 72 h; STAT3 variant: Y640F (constitutively active)
Procedure, shortened: (§1)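 In 384-well plates with acoustically pre-plated compounds (5 concentrations, 10-fold dilutions), 20 μl of HEK293 cells at 100,000 cells/ml were added; the cells overexpressed wild-type or mutant STAT3 and carried a STAT3-dependent luciferase reporter. Incubation lasted 72 hours at 37°C and 5% CO2 before sequential CellTox Green (485/520 nm) and CellTiter-Glo reads on a PHERAstar FS. After normalisation to negative and positive control wells, Breeze was used to derive a drug sensitivity score from the dose-response curve area.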

[2] = system: HEK293sieSTAT3(wt); assay: as above; conditions: 72 h; STAT3 variant: wild type
Procedure, shortened: as §1

[3] = system: HEK293sieSTAT3(Y640F); assay: drug sensitivity score (DSS), viability CellTiter-Glo (DSS (dimensionless)); higher = more growth inhibition; extreme values may be limits of the assay; conditions: 72 h; STAT3 variant: Y640F (constitutively active)
Procedure, shortened: as §1

[4] = system: HEK293sieSTAT3(wt); assay: as above; conditions: 72 h; STAT3 variant: wild type
Procedure, shortened: as §1

Structure (SMILES) | drug sensitivity score [1] | drug sensitivity score [2] | drug sensitivity score [3] | drug sensitivity score [4]
C=CC[C@@H]1/C=C(\C)C[C@H](C)C[C@H](OC)[C@H]2O[C@@](O)(C(=O)C(=O)N3CCCC[C@H]3C(=O)O[C@H](/C(C)=C/[C@@H]3CC[C@@H](O)[C@H](OC)C3)[C@H](C)[C@@H](O)CC1=O)[C@H](C)C[C@@H]2OC [Tacrolimus] (top concentration tested 10000 nM) | 0 | 0 | 0.22 | 0.73
Cn1ncnc1[C@H]1c2n[nH]c(=O)c3cc(F)cc(c23)N[C@@H]1c1ccc(F)cc1 [Talazoparib] (top concentration tested 1000 nM) | 1.02 | 5.13 | 15.9 | 16
C[C@@H]1CN(Cc2ccc(F)cc2)[C@@H](C)CN1C(=O)c1cc2c(C(=O)C(=O)N(C)C)cn(C)c2cc1Cl [Talmapimod] (top concentration tested 10000 nM) | 0 | 0 | 3.93 | 1.23
COc1cc(Nc2ncc(F)c(Nc3ccc4c(n3)NC(=O)C(C)(C)O4)n2)cc(OC)c1OC [Tamatinib] (top concentration tested 10000 nM) | 5.91 | 8.52 | 2.55 | 3.72
CC/C(=C(\c1ccccc1)c1ccc(OCCN(C)C)cc1)c1ccccc1 [Tamoxifen] (top concentration tested 10000 nM) | 2.88 | 8.77 | 4.47 | 5.42
COc1cc2c(N3CCN(C(=O)Nc4ccc(OC(C)C)cc4)CC3)ncnc2cc1OCCCN1CCCCC1 [Tandutinib] (top concentration tested 1000 nM) | 0 | 0 | 0.33 | 1.99
C=CCNC1=C2C[C@@H](C)C[C@H](OC)[C@H](O)[C@@H](C)/C=C(\C)[C@H](OC(N)=O)[C@@H](OC)/C=C\C=C(/C)C(=O)NC(=CC1=O)C2=O [Tanespimycin] (top concentration tested 10000 nM) | 7.34 | 12.8 | 22.1 | 22.6
O[C@H]1CC[C@H](Nc2ncc3nc(Nc4c(F)cc(F)cc4F)n([C@H]4CCOC4)c3n2)CC1 [Tanzisertib] (top concentration tested 10000 nM) | 0 | 0 | 0 | 2
C[C@@H](C(=O)O)c1ccc(-c2ccccc2)c(F)c1 [Tarenflurbil] (top concentration tested 10000 nM) | 0 | 0 | 0.09 | 0.56
Cc1nc(-c2cn3c(n2)-c2ccc(-c4cnn(C(C)(C)C(N)=O)c4)cc2OCC3)n(C(C)C)n1 [Taselisib] (top concentration tested 1000 nM) | 0 | 0.54 | 4.03 | 5.32
COc1cccc2c1c(O)c(C(=O)N(C)c1ccc(C(F)(F)F)cc1)c(=O)n2C [Tasquinimod] (top concentration tested 10000 nM) | 0 | 0 | 0 | 5.07
CCN(c1cc(-c2ccc(CN3CCOCC3)cc2)cc(C(=O)NCc2c(C)cc(C)[nH]c2=O)c1C)C1CCOCC1 [Tazemetostat] (top concentration tested 10000 nM) | 0 | 0 | 0 | 1.85
CNC(=O)c1cc(COc2nnc(Nc3ccc(Cl)cc3)c3ccoc23)ccn1 [Telatinib] (top concentration tested 10000 nM) | 0 | 2.32 | 2.07 | 0
Cn1nnc2c(C(N)=O)ncn2c1=O [Temozolomide] (top concentration tested 100000 nM) | 0.32 | 0 | 0 | 0.36
CO[C@H]1C[C@@H]2CC[C@@H](C)[C@@](O)(O2)C(=O)C(=O)N2CCCC[C@H]2C(=O)O[C@H]([C@H](C)C[C@@H]2CC[C@@H](OC(=O)C(C)(CO)CO)[C@H](OC)C2)CC(=O)[C@H](C)/C=C(\C)[C@@H](O)[C@@H](OC)C(=O)[C@H](C)C[C@H](C)/C=C/C=C/C=C/1C [Temsirolimus] (top concentration tested 100 nM) | 0 | 0 | 11.2 | 17.6
COc1cc([C@@H]2c3cc4c(cc3[C@@H](O[C@@H]3O[C@@H]5CO[C@@H](c6cccs6)O[C@H]5[C@H](O)[C@H]3O)[C@H]3COC(=O)[C@H]23)OCO4)cc(OC)c1O [Teniposide] (top concentration tested 10000 nM) | 2.03 | 8.89 | 29 | 29.6
O=C1CCC(N2C(=O)c3ccccc3C2=O)C(=O)N1 (stereo not drawn) [Thalidomide] (top concentration tested 10000 nM) | 0 | 0 | 4.79 | 2.38
S=P(N1CC1)(N1CC1)N1CC1 [Thio-TEPA] (top concentration tested 50000 nM) | 0 | 0 | 0.14 | 0.48
Nc1nc2[nH]cnc2c(=S)[nH]1 [Thioguanine] (top concentration tested 10000 nM) | 0 | 1.43 | 9.91 | 9.24
O=c1sn(-c2cccc3ccccc23)c(=O)n1Cc1ccccc1 [Tideglusib] (top concentration tested 3000 nM) | 0 | 0 | 2.47 | 0.7
Cn1cncc1[C@@](N)(c1ccc(Cl)cc1)c1ccc2c(c1)c(-c1cccc(Cl)c1)cc(=O)n2C [Tipifarnib] (top concentration tested 10000 nM) | 1.51 | 6.86 | 12.3 | 14.8

Structure (SMILES) | drug sensitivity score [1] | drug sensitivity score [2] | drug sensitivity score [3] | drug sensitivity score [4]
O=C1NC(=O)[C@@H](c2cn3c4c(cccc24)CCC3)[C@@H]1c1c[nH]c2ccccc12 [Tivantinib] (top concentration tested 1000 nM) | 0 | 0.63 | 2.71 | 2.4
COc1cc2nccc(Oc3ccc(NC(=O)Nc4cc(C)on4)c(Cl)c3)c2cc1OC [Tivozanib] (top concentration tested 10000 nM) | 0 | 1.14 | 4.07 | 4.13
C[C@@H]1CCN(C(=O)CC#N)C[C@@H]1N(C)c1ncnc2[nH]ccc12 [Tofacitinib] (top concentration tested 5000 nM) | 0 | 0 | 0.07 | 0
CC[C@@]1(O)C(=O)OCc2c1cc1n(c2=O)Cc2cc3c(CN(C)C)c(O)ccc3nc2-1 [Topotecan] (top concentration tested 10000 nM) | 8.8 | 13 | 28.1 | 27
CN(C)CCOc1ccc(/C(=C(/CCCl)c2ccccc2)c2ccccc2)cc1 [Toremifene] (top concentration tested 10000 nM) | 2.32 | 6.99 | 2.66 | 5.41
CC(C)C[C@@H](C(=O)N[C@H](C(=O)OC1CCCC1)c1ccccc1)[C@H](O)C(=O)NO [Tosedostat] (top concentration tested 10000 nM) | 1.4 | 8.66 | 3.46 | 6.78
Cc1cc(Nc2cc(N3CCN(C)CC3)nc(Sc3ccc(NC(=O)C4CC4)cc3)n2)n[nH]1 [Tozasertib] (top concentration tested 10000 nM) | 0 | 0.22 | 10.3 | 12.1
CC(=O)Nc1cccc(-n2c(=O)n(C3CC3)c(=O)c3c(Nc4ccc(I)cc4F)n(C)c(=O)c(C)c32)c1 [Trametinib] (top concentration tested 250 nM) | 1.69 | 0 | 0 | 0
CC1=C(/C=C/C(C)=C/C=C/C(C)=C/C(=O)O)C(C)(C)CCC1 [Tretinoin] (top concentration tested 10000 nM) | 0 | 0 | 0 | 0
NC(=S)N/N=C/c1ncccc1N [Triapine] (top concentration tested 10000 nM) | 1.5 | 0.84 | 14.7 | 9.19
O=C(CCCCCCC(=O)Nc1ccc([C@H]2O[C@@H](CSc3nc(-c4ccccc4)c(-c4ccccc4)o3)C[C@@H](c3ccc(CO)cc3)O2)cc1)NO [Tubacin] (top concentration tested 10000 nM) | 0.48 | 2.57 | 4.63 | 5.53
CN1CCc2c(c3ccccc3n2Cc2ccc(C(=O)NO)cc2)C1 [Tubastatin A] (top concentration tested 10000 nM) | 5.37 | 7.38 | 8.41 | 8.98
CN[C@@H]1C[C@H]2O[C@@](C)([C@@H]1OC)n1c3ccccc3c3c4c(c5c6ccccc6n2c5c31)C(=O)N[C@H]4O [UCN-01] (top concentration tested 10000 nM) | 3.93 | 9.92 | 28.3 | 29.5
COC(=O)c1ccc2c(c1)[nH]c1ncnc(NCCCN3CCCCC3)c12 [UM729] (top concentration tested 10000 nM) | 0.81 | 4.84 | 8.45 | 6.2
O=C(O)CSc1cc(NS(=O)(=O)c2ccc(Br)cc2)c2ccccc2c1O [UMI-77] (top concentration tested 100000 nM) | 5.23 | 5.12 | 10 | 13.1
COc1cc2c(NC3CCN(C(C)C)CC3)nc(C3CCCCC3)nc2cc1OCCCN1CCCC1 [UNC0638] (top concentration tested 10000 nM) | 6.64 | 7.19 | 5.62 | 7.26
COc1cc2c(NC3CCN(C(C)C)CC3)nc(N3CCC(F)(F)CC3)nc2cc1OCCCN1CCCC1 [UNC0642] (top concentration tested 10000 nM) | 7.41 | 7.38 | 9.29 | 7.97
O=C(c1ccc(C(=O)N2CCC(N3CCCC3)CC2)c(Nc2ccccc2)c1)N1CCC(N2CCCC2)CC1 [UNC1215] (top concentration tested 30000 nM) | 0 | 0 | 0.33 | 0.89
CCCCNc1ncc(C(=O)NCc2ccc(-n3ccnc3)cc2)c(NC2CCC(O)CC2)n1 (stereo not drawn) [UNC2881] (top concentration tested 2500 nM) | 0 | 3.59 | 5.94 | 4.52
NC(=O)c1cccc(-c2cccc(OC(=O)NC3CCCCC3)c2)c1 [URB597] (top concentration tested 1000 nM) | 0 | 0 | 0.03 | 0.37
CC(C)Nc1cc(-c2c[nH]c(C(=O)N[C@H](CO)c3cccc(Cl)c3)c2)c(Cl)cn1 [Ulixertinib] (top concentration tested 10000 nM) | 0 | 0 | 4.62 | 3.95
